From US20110257176A1, “NITROGEN HETEROCYCLE DERIVATIVES AS PROTEASOME MODULATORS” (INSTITUT NATIONAL DE LA SANTE ET DE LA RECHERCHE MEDICALE …, priority 2008, published 2011)

Key:
Assay type in all cases: biochemical
[1] = target: T1, rabbit reticulocyte 20S proteasome, chymotrypsin-like (CT-L) activity (UniProt G1T4Q9); experiment: 20S proteasome chymotrypsin-like (CT-L) activity, Suc-LLVY-AMC hydrolysis; conditions: rabbit 20S proteasome, pH 8, 37° C.
T1 construct: IC50 on chymotrypsin-like activity; other: rabbit 20S proteasome, pH 8, 37° C; Rabbit erythrocyte 20S proteasome was obtained from Boston Biochem, Cambridge, USA
T1 sequence (G1T4Q9 entry or part of it): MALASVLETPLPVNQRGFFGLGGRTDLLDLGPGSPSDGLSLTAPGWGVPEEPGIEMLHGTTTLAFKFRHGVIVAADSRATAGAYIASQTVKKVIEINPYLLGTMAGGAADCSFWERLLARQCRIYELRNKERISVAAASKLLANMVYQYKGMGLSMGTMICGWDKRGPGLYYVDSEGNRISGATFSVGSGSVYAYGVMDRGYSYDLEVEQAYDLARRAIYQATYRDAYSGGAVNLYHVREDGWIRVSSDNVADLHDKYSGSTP
Procedure: (§1) Rabbit erythrocyte 20S proteasome was obtained from Boston Biochem, Cambridge, USA. The fluorogenic substrates Suc-LLVY-AMC, Boc-LRR-AMC and Z-LLE-βNA used to measure the proteasome activities CT-L, T-L and PA respectively were purchased from Bachem (France). Other reagents and solvents were purchased from commercial sources. Fluorescence was measured using a BMG Fluostar microplate reader.
(§2) Compounds 1-23 were tested for their potential to inhibit the CT-L, T-L and PA activities of the rabbit reticulocyte 20S proteasome. Enzyme activities were determined by monitoring the hydrolysis of the appropriate fluorogenic substrate (λexc=360, λem=465 nm for AMC substrates, and λexc=340, λem=405 nm for the βNA substrate) for 1 h at 37° C.
(§3) In the in vitro screening, each compound was tested in duplicate against the three activities, at 100 μM and 50 μM in the corresponding buffer. The buffer were (pH 8): 50 mM Tris, 150 mM NaCl, 10% (v/v) glycerol, 0.025% (w/v) SDS, and 3% (v/v) DMSO (CT-L and PA activities); 50 mM Tris, 150 mM NaCl, 10% (v/v) glycerol, and 3% (v/v) DMSO (T-L activity).
(§4) The inhibitory activity of compounds is expressed as IC50, which corresponds to the concentration of proteasome inhibitor leading to a loss of activity of 50%. The values of IC50 were calculated by fitting the experimental data to equation 1: % Inhibition=100×(1−Vi/V0)=100 [I]0/(IC50+[I]0), or equation 2: % Inhibition=100 [I]0^nH/(IC50^nH+[I]0^nH), where Vi is the initial rate in the presence of the inhibitor, V0 is the initial rate in the absence of the inhibitor, [I]0 is the inhibitor concentration, nH is the Hill number (FIG. 1).

[2] = target: rabbit reticulocyte 20S proteasome, post-acid (PA) activity (Oryctolagus cuniculus, UniProt G1T235); experiment: 20S proteasome post-acid (PA) activity, Z-LLE-βNA hydrolysis; parameters: key to Inhibition of post-acid activity (NI): NI: No Inhibition; conditions: rabbit 20S proteasome, screened at 100 μM and 50 μM
Sequence of rabbit reticulocyte 20S proteasome, post-acid (PA) activity (G1T235 entry or part of it): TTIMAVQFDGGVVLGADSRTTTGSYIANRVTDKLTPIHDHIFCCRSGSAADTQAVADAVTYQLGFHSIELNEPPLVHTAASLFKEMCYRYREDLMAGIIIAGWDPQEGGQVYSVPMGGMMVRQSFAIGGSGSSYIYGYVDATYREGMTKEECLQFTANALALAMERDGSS
Procedure: as §1, §2, §3, §4

[3] = test system: rabbit reticulocyte 20S proteasome, trypsin-like (T-L) activity; experiment: 20S proteasome trypsin-like (T-L) activity, Boc-LRR-AMC hydrolysis; parameters: key to Inhibition of trypsin-like activity (NI): NI: No Inhibition; conditions: rabbit 20S proteasome; for Inhibition of trypsin-like activity (NI): screened at 100 μM and 50 μM
Procedure: as §1, §2, §3, §4

human calpain-I = target: T2, human calpain-I (Homo sapiens, UniProt P07384); experiment: Selectivity: inhibition of calpain-I; conditions: 100 μM compound
T2 sequence (P07384 1-714): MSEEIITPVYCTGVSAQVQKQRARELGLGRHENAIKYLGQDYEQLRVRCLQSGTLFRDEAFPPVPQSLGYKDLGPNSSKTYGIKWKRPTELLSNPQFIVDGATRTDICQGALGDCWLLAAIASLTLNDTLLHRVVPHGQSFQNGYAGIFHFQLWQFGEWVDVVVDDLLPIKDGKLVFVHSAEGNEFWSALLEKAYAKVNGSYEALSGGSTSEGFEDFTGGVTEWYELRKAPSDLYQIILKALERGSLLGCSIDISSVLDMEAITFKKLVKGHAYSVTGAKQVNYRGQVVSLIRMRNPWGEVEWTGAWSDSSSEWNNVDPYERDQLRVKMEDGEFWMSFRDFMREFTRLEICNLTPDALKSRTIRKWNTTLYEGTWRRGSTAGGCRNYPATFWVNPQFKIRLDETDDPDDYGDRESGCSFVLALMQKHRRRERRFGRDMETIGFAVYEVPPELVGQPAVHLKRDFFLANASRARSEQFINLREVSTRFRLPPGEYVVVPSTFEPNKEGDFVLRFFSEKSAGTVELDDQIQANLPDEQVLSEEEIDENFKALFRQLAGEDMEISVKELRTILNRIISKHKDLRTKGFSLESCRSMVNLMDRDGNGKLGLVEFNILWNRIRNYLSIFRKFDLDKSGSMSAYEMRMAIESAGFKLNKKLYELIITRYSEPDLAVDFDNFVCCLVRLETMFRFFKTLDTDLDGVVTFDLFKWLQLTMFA
T2 sequence (P04632 1-268 partner): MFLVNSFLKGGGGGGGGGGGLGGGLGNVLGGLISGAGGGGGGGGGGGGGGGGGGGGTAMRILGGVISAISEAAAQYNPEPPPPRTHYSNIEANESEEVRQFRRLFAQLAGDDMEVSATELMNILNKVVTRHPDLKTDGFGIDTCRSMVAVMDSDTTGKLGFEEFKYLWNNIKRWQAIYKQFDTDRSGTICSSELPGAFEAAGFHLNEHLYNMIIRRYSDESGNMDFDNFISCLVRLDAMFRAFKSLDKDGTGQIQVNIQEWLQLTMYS

Structure (SMILES)	IC50 [1]	Inhibition of post-acid activity (NI) [2]	Inhibition of trypsin-like activity (NI) [3]	% inhibition (inhibitor concentration) on trypsin-like activity ([3]; 50 μM inhibitor)	Inhibition of human calpain-I (in words) (human calpain-I)	inhibition at 100 µM (human calpain-I)
CCc1ccc(OCC(=O)N(Cc2nc(-c3cccc(C)c3)no2)C(C)C)cc1 [Compound 3]	170 ± 10 nM	NI	NI	–	–	–
Cc1cccc(-c2noc(CN(C(=O)COc3ccc(Br)cc3)C(C)C)n2)c1 [Compound 4]	510 ± 70 nM	NI	–	7.3%	–	–
COc1ccc(OCC(=O)N(Cc2nc(-c3cccc(C)c3)no2)C(C)C)cc1 [Compound 5]	910 ± 120 nM	NI	NI	–	–	–
COc1ccc(OCC(=O)N(Cc2nc(-c3ccccc3)no2)C(C)C)cc1 [Compound 6]	1020 ± 160 nM	NI	–	–	no inhibition	–
CCc1ccc(OCC(=O)N(Cc2nc(-c3ccc(OC)cc3)no2)C(C)C)cc1 [Compound 7]	90 ± 6 nM	NI	NI	–	–	–
C=CCN(Cc1nc(-c2ccc(OC)cc2)no1)C(=O)COc1ccccc1 [Compound 8]	1660 ± 120 nM	NI	NI	–	–	≤ 30%
COc1ccc(-c2noc(CN(C(=O)COc3ccccc3)C(C)C)n2)cc1 [Compound 9]	3960 ± 750 nM	NI	NI	–	–	≤ 30%
COc1ccc(-c2noc(CN(C(=O)COc3ccc(C)cc3)C(C)C)n2)cc1 [Compound 10]	710 ± 40 nM	NI	NI	–	–	–
COc1ccc(-c2noc(CN(C(=O)COc3ccc(Br)cc3)C(C)C)n2)cc1 [Compound 12]	100 ± 10 nM	NI	NI	–	–	–
COc1ccc(-c2noc(CN(C(=O)C(C)Oc3ccccc3)C(C)C)n2)cc1 (stereo not drawn) [Compound 14]	8050 ± 830 nM	NI	NI	–	–	–
Cc1cccc(OCC(=O)N(Cc2nc(-c3cccc(C)c3)no2)C(C)C)c1 [Compound 15]	~27000 nM	NI	NI	–	–	–
COc1ccc(OCC(=O)N(Cc2nc(-c3ccc(C)cc3)no2)C(C)C)cc1 [Compound 16]	2490 ± 910 nM	NI	NI	–	no inhibition	–
